Source: patent US20040110963A1, “Novel hydrazones” (priority 2001, published 2004)

molecular target: enzyme I of the bacterial phosphotransferase system (PTS) (Escherichia coli, UniProt P08839); experiment: Assay for Enzyme I dependent PEP: peptide phosphotransferase activity (LDH-coupled, NADH read-out at 340 nm); type: biochemical; settings: enzyme I 0.75 μM, 0.8 mM PEP, pH 7.5; read-out: Inhibition of PTS (IC50 in μM)
Excerpt: The determination of activity of a compound of the present invention in the PTS may be summarized as follows:
Assay for Enzyme I Dependent PEP:
Peptide Phosphotransferase Activity. [formula]
To find inhibitors of Enzyme I of the PTS by high throughput screening, an in vitro assay based on spectrophotometric read out at 340 nm has been set up. The assay comprises of three major components, purified enzyme I in catalytic amounts, Phosphoenol Pyruvate (PEP) as the phosphoryl donor substrate and purified HPr as the phosphoryl acceptor substrate.
The assay couples the formation of pyruvate formed from PEP to lactate, catalyzed by lactate dehydrogenase. The disappearance of NADH, cofactor required by lactate dehydrogenase, is determined spectrophotometerically at 340 nm. The assay is done in a U-shaped microtiter plate format, and quantitation is done using microplate absorbance reader.
100 μl reaction mixture contained 0.8 mM PEP, 0.2 mM NADH, 3 μg lactate dehydrogenase (Boehringer Mannheim), 50 mM KPi pH=7.5, 2.5 mM dithiothreitol, 2.5 mM NaF, 5 mM MgCI2, and between 50 and 100 μM of the compound. The reaction is started by the addition of enzyme I (final concentration 0.75 μM). In a control experiment the compound is replaced by DMSO.

Compared with `COc1cccc(C(=O)NN=C(C)c2ccccc2N)c1` [Example 25, 3-Methoxy-N′-[1-(2-Amino-phenyl)-ethylidene]-benzohydrazide], `Cc1cccc(C(=O)NN=Cc2cc(Cl)ccc2O)c1` [Example 20, 3-Methyl-N′-(5-chloro-2-hydroxy-benzylidene)-benzohydrazide] is 5-fold lower in IC50: 20 µM for the first, 4 µM for the second. The second is the more potent here.

First: CC(=NNC(=O)c1ccccc1)c1cc(O)ccc1O [Example 15, N′-[1-(2,5-Dihydroxy-phenyl)-ethylidene]-benzohydrazide]
Second: O=C(NN=Cc1cc(O)ccc1O)c1ccc(Cl)c(Cl)c1 [Example 12, 3,4-Dichloro-N′-(2,5-dihydroxy-benzylidene)-benzohydrazide]
The IC50 of the first is 8.6-fold higher: 6 µM for the first, 0.7 µM for the second. The second is the more potent here.

Compared with `CNc1ccccc1C(=O)NN=Cc1cc(Cl)ccc1O` [Example 18, 2-Methylamino-N′-(5-chloro-2-hydroxy-benzylidene)-benzohydrazide], `O=C(NN=Cc1cc(Cl)ccc1O)c1cccc(Cl)c1` [Example 38, 3-Chloro-N′-(2-hydroxy-5-chloro-benzylidene)-benzohydrazide] is 19-fold higher in IC50: 4 µM for the first, 75 µM for the second. The first is the more potent here.

Compared with `COc1cccc(C(=O)NN=Cc2ccccc2O)c1` [Example 27, 3-Methoxy-N′-(2-hydroxy-benzylidene)-benzohydrazide], `CNc1ccccc1C(=O)NN=C(C)c1ccccc1O` [Example 22, 2-methylamino-N′-[1-(2-hydroxy-phenyl)-ethylidene]-benzohydrazide] is 3.5-fold lower in IC50: 7 µM for the first, 2 µM for the second. The second is the more potent here.

Going from `COc1cc(C(=O)NN=Cc2cc(O)ccc2O)ccc1O` [Example 16, N′-(2,5-Dihydroxy-benzylidene)-4-hydroxy-3-methoxy-benzohydrazide] to `O=C(Cc1c[nH]c2ccccc12)NN=Cc1ccccc1O` [Example 2, N′-(2-Hydroxy-benzylidene)-2-(1H-indol-3-yl)-acetohydrazide], the IC50 rises from 4 µM to 50 µM (12-fold).

Compared with `O=C(NN=Cc1ccc(O)c(O)c1O)c1ccccc1` [Example 28, N′-(2,3,4-Trihydroxy-benzylidene)-benzohydrazide], `CNc1ccccc1C(=O)NN=Cc1cc(O)ccc1O` [Example 19, 2-Methylamino-N′-(2,5-dihydroxy-benzylidene)-benzohydrazide] is 1.5-fold lower in IC50: 3 µM for the first, 2 µM for the second.

Compared with `Cc1ccc(O)c(C=NNC(=O)c2ccccc2)c1` [Example 17, N′-(2-Hydroxy-5-methyl-benzylidene)-benzohydrazide], “4-chloro-N′-(2-hydroxy-3-chloro-benzylidene)-benzohydrazide [Example 36]” is 17-fold higher in IC50: 6 µM for the first, 100 µM for the second.

Compared with `O=C(NN=Cc1ccc(O)cc1O)c1ccc(Cl)cc1` [Example 37, 4-Chloro-N′-(2,4-dihydroxy-benzylidene)-benzohydrazide], `O=C(NN=Cc1ccccc1O)c1cccc(C(F)(F)F)c1` [Example 32, 3-Trifluoromethyl-N′-(2-hydroxy-benzylidene)-benzohydrazide] is 2.9-fold lower in IC50: 20 µM for the first, 7 µM for the second.

Compared with `O=C(NN=Cc1cc(O)ccc1O)c1cccc2ccccc12` [Example 3, N′-(2,5-Dihydroxy-benzylidene)-naphthalene-1-carbohydrazide], `CC(=NNC(=O)c1ccc(O)cc1)c1cc(O)ccc1O` [Example 35, 4-Hydroxy-N′-[1-(2,5-dihydroxy-phenyl)-ethylidene]-benzohydrazide] is 3.4-fold lower in IC50: 6 µM for the first, 1.75 µM for the second.

Compared with `O=C(NN=Cc1cc(O)ccc1O)c1cccc(C(F)(F)F)c1` [Example 34, 3-Trifluoromethyl-N′-(2,5-dihydroxy-benzylidene)-benzohydrazide], `Cc1cccc(C(=O)NN=Cc2cc(O)ccc2O)c1` [Example 33, 3-Methyl-N′-(2,5-dihydroxy-benzylidene)-benzohydrazide] is 7.5-fold lower in IC50: 15 µM for the first, 2 µM for the second. The second is the more potent here.

First: O=C(NN=Cc1ccccc1O)c1ccc(Br)cc1 [Example 31, 4-Bromo-N′-(2-hydroxy-benzylidene)-benzohydrazide]
Second: O=C(NN=Cc1cccc(O)c1O)c1ccccc1 [Example 26, N′-(2,3-Dihydroxy-benzylidene)-benzohydrazide]
The IC50 of the first is 1.5-fold higher: 75 µM for the first, 50 µM for the second.
